Reference: patent publication US20260049077A1, “Neurotrophic Receptor Tyrosine Kinase (NTRK) Inhibitors and Methods Using Same” (Baylor College of Medicine, priority 2022, published 2026)
“And” between values parts separate entries of the source, which are not always exact repeats. Identical values can stand only once. Like-named read-outs stand apart in the source and are kept apart here.

What was measured:
endometriotic lesions = test: Endometriosis mouse model, lesion efficacy; format: in vivo; details: 10 mg/kg, excised lesions
Description: FIGS. 17A-17F depict the robust efficacy of the inhibitory compounds of the present disclosure as NTRK2 inhibitors for inhibition of endometriotic lesion growth in mice utilizing CDD-3132 as an example. FIG. 17A provides a schematic overview of the experiment performed. FIGS. 17B-17C provide photographs showing excised lesions with administration of a control (FIG. 17B) or CDD-3132 (10 mg/kg/day) (FIG. 17C).
(§1) In one aspect, the present disclosure provides exemplary data relating to the administration of NTRK2 inhibitors in a mouse model of endometriosis (FIG. 14). In certain embodiments, the recipient mouse is administered the NTRK2 inhibitor and/or controls on day 14 after intraperitoneal injection of endometrium of the donor mouse. In certain embodiments, the recipient mouse is sacrificed and quantitatively assessed on day 28.

NTRK3 = NTRK3 (Homo sapiens (Human), UniProt Q16288); test: NTRK3 inhibition (IC50); details: read-out: NTRK3 IC50
192 kinases = test: Promega K192 cell-based NanoBRET kinase occupancy assay (panel); details: 1 μM
Description: (§2) Similarly, the selectivity of CDD-3031 for NTRK kinases was evaluated in a kinase occupancy assay (Promega K192 cell-based NanoBRET assay) using 192 kinases (Table 4).

[1] = Metabolic stability in human liver microsomes (HLM)
NTRK2 = NTRK2 (Homo sapiens (Human), UniProt Q16620); test: NTRK2 inhibition (IC50); format: biochemical
[2] = Plasma ALT and AST in mice after a high dose (50 mg/kg); format: in vivo, mouse
[3] = Endometriosis mouse model, liver and kidney toxicity (organ weight, ALT, AST); format: in vivo; set-up: ALT (Mean ± SD) / AST (Mean ± SD): unit not given here
Description: as §1

AURKC = AURKC (Homo sapiens (Human), UniProt Q9UQB9); test: Promega K192 cell-based NanoBRET kinase occupancy assay
Chain of AURKC (Q9UQB9 whole entry): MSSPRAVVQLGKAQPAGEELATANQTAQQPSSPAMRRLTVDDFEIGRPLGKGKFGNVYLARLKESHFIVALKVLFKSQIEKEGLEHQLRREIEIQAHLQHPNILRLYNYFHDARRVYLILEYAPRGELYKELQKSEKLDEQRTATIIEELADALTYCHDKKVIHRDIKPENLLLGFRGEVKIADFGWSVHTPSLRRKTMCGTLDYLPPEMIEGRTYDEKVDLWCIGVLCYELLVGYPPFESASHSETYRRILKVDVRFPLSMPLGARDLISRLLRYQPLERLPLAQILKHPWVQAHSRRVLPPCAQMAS
Description: as §2

CLK1 = CLK1 (Homo sapiens (Human), UniProt P49759); test: as above
Description: as §2

NTRK1 [4] = target: T1, NTRK1 (Homo sapiens (Human), UniProt P04629); test: as above
T1 sequence (P04629 33-796): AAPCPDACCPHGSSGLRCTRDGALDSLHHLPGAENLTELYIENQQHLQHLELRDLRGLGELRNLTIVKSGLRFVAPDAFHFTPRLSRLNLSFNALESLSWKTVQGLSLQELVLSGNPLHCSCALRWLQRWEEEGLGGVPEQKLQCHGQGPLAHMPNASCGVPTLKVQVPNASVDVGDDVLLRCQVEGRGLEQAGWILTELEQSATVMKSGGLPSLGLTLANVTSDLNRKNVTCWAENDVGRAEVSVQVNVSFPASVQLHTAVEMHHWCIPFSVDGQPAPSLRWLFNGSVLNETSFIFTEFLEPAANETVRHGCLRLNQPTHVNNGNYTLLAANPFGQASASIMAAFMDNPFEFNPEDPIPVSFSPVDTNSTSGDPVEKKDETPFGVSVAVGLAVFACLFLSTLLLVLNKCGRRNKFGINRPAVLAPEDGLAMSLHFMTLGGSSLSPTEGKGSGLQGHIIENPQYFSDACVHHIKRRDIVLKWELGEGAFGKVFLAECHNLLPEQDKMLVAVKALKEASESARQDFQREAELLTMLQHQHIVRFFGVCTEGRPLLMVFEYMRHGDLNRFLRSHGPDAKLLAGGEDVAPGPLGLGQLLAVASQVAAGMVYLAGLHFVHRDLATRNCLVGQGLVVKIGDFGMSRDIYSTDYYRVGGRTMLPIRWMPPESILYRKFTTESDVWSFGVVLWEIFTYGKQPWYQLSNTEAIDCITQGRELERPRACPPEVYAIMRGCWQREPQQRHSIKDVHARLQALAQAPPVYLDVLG
Description: as §2

WEE1 = WEE1 (Homo sapiens (Human), UniProt P30291); test: as above
Chain of WEE1 (P30291 whole entry): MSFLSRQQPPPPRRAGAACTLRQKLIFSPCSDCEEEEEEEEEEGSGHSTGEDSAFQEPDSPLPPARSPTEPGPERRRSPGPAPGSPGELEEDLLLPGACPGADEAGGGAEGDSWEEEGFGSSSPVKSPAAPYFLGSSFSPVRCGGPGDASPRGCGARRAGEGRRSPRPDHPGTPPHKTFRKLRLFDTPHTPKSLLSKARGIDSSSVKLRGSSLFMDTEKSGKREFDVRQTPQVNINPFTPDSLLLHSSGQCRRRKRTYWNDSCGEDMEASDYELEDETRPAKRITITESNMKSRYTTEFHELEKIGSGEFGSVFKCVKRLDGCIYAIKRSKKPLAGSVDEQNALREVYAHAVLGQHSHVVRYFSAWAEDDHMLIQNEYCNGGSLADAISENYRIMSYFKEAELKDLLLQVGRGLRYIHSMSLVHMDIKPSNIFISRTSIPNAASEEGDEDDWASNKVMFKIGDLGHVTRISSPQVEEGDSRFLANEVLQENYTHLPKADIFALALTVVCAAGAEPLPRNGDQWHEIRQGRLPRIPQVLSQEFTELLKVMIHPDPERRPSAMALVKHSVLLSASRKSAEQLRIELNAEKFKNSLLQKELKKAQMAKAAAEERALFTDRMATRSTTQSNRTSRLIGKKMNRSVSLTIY
Description: as §2

AURKB = AURKB (Homo sapiens (Human), UniProt Q96GD4); test: as above
Chain of AURKB (Q96GD4 whole entry): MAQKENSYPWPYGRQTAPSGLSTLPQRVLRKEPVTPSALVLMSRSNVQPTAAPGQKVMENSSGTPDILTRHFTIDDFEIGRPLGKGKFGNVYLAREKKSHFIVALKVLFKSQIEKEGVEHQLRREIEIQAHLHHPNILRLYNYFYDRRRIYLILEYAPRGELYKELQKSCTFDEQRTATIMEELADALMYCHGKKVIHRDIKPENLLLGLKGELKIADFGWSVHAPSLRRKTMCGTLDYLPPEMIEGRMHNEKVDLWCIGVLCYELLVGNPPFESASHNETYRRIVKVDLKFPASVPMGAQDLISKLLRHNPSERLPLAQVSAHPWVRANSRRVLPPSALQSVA
Description: as §2

NEK5 = NEK5 (Homo sapiens (Human), UniProt Q6P3R8); test: as above
Chain of NEK5 (Q6P3R8 whole entry): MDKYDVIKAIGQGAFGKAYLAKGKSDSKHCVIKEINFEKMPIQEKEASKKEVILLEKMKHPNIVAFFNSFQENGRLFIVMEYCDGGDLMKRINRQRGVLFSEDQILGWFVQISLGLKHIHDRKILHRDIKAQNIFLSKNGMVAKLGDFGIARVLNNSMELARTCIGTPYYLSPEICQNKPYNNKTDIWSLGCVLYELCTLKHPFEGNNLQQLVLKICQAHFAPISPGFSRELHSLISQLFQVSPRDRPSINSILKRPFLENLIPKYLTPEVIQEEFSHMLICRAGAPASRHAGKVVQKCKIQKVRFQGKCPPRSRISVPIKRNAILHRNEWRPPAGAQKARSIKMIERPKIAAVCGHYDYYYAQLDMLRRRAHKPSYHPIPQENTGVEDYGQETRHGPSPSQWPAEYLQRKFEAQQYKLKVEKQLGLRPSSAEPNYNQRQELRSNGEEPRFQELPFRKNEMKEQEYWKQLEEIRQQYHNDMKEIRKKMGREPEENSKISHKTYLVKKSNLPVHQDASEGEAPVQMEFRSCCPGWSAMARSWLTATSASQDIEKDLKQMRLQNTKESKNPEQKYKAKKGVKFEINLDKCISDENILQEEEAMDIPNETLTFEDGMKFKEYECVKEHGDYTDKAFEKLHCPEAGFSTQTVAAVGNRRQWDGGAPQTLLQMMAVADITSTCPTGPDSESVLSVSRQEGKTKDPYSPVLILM
Description: as §2

MKNK2 = MKNK2 (Homo sapiens (Human), UniProt Q9HBH9); test: as above
Chain of MKNK2 (Q9HBH9 whole entry): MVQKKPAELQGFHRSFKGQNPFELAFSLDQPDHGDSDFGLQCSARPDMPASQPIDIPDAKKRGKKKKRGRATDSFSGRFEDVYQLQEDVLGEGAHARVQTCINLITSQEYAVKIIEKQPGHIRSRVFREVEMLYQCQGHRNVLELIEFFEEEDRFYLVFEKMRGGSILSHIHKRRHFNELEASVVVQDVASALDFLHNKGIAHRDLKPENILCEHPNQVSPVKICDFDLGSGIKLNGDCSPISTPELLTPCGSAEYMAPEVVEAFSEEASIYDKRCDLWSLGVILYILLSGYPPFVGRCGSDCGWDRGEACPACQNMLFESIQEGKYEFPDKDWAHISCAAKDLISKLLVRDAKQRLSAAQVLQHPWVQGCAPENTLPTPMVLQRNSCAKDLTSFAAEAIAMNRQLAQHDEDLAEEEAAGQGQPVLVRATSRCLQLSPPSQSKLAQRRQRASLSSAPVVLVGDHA
Description: as §2

STK36 = STK36 (Homo sapiens (Human), UniProt Q9NRP7); test: as above
Chain of STK36 (Q9NRP7 whole entry): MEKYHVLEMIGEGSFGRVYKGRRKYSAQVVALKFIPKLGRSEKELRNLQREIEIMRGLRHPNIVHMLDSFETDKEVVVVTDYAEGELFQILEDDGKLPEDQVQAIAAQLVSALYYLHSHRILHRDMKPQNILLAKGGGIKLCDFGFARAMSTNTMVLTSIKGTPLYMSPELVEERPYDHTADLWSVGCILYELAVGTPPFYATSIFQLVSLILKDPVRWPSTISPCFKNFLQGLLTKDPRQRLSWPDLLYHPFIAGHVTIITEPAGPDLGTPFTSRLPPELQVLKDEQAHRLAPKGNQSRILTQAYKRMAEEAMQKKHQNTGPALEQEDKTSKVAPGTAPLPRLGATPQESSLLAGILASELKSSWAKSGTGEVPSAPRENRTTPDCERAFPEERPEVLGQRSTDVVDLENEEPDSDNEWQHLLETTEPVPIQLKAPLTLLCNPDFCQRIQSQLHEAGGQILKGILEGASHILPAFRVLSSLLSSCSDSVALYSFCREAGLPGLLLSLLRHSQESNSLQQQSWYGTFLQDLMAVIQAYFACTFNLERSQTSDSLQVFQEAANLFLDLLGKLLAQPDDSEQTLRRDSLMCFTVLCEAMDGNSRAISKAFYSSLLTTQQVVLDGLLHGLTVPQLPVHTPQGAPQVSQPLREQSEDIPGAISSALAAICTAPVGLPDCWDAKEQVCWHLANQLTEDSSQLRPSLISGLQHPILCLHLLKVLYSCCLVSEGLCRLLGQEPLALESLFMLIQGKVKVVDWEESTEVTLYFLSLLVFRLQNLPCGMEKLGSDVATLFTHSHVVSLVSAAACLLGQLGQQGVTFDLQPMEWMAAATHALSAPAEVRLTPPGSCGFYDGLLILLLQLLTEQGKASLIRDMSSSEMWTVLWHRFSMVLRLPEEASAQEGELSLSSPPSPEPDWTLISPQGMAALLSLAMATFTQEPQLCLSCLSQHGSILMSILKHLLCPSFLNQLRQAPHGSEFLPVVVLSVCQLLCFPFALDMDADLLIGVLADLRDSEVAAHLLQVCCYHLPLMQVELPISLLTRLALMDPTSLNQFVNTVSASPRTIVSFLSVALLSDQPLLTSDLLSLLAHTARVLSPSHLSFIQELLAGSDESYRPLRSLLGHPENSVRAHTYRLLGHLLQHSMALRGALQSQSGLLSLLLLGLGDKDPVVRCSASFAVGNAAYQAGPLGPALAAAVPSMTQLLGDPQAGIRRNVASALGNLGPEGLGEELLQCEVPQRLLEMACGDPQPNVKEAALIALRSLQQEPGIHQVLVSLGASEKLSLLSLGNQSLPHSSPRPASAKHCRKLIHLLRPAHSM
Description: as §2

TIE1 = TIE1 (Homo sapiens (Human), UniProt P35590); test: as above
Description: as §2

SGK1 = SGK1 (Homo sapiens (Human), UniProt O00141); test: as above
Chain of SGK1 (O00141 whole entry): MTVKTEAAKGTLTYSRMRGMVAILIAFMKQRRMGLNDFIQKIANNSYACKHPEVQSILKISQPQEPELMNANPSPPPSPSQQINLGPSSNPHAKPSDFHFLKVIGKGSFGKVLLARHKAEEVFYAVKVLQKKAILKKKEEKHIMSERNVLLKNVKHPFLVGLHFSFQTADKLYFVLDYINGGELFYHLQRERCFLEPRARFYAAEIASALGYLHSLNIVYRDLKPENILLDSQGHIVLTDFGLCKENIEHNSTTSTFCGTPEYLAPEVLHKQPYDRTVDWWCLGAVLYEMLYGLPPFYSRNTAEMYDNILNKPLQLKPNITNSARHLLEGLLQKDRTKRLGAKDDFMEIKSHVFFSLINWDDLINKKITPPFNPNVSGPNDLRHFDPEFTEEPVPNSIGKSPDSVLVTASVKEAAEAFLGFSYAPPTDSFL
Description: as §2

MUSK = MUSK (Homo sapiens (Human), UniProt O15146); test: as above
Description: as §2

NTRK1 [5] = target: T1, NTRK1; test: NTRK1 inhibition (IC50); details: read-out: NTRK1 IC50
[6] = Pharmacokinetics of CDD-3031 in mice, oral gavage; format: in vivo, mouse; details: oral gavage 50 mg/kg, n = 3, mean ± SD
Description: CDD-2330 was dissolved in 10% DMSO+0.5% methyl cellulose at 5 mg/mL. CDD-2330 was orally delivered at 50 mg/kg to mice (n=4). Blood samples were collected at 0, 0.25, 0.5, 1, 2, 4, 6, 8, and 24 h. Samples were analyzed by LC-MS, and the concentration of CDD-2330 was quantified with a standard curve (range: 0-10 μM). CDD-3031 was administered by oral gavage at a dose of 50 mg/kg. Blood samples were collected at […], 0.167, 0.25, 0.5, 1, 2, 4, 6, 8, and 24 h.

[7] = Metabolic stability in mouse liver microsomes (MLM)
[8] = plasma, 24 h after 50 mg/kg CDD-3031 by oral gavage, individual mice
[9] = i.p. dose of 10 mg/kg/day for 14 days

CN(Cc1ccn2ncc(C(N)=O)c2c1)C(=O)Nc1ccc(OC(F)(F)F)cc1 [CDD-3031, 5-((1-methyl-3-(4-(trifluoromethoxy)phenyl)ureido)methyl)pyrazolo[1,5-a]pyridine-3-carboxamide]
endometriotic lesion growth (endometriotic lesions): inhibiting endometriotic lesion growth
IC50 (NTRK3): 25.3 nM
selectivity in 192-kinase occupancy panel (192 kinases): greater selectivity for NTRK2 and NTRK1
half-life [1]: > 16.7 h
IC50 (NTRK2): 11.9 nM
potential liver and other tissue toxicity ([2]; high dose, 50 mg/kg): minimal effects
ALT [2, 8]: 35.89 IU/L and 24.49 IU/L and 52.86 IU/L and 48.18 IU/L
AST [2, 8]: 86.81 IU/L and 64.53 IU/L and 68.33 IU/L and 72.84 IU/L
effect on liver and/or kidney weight and/or serum elevation of ALT and AST ([3]; 10 mg/kg, mice with endometriotic lesions): little to no effect
ALT (Mean ± SD) [3, 9]: 16.6 ± 2.6
AST (Mean ± SD) [3, 9]: 46.9 ± 23.4
impact on liver and kidney weights ([3]; mice treated for 14 days): no significant impact
receptor occupancy at 1 µM (AURKC; average, read-out: AURKC kinase occupancy, Average (%)): 4.09%
receptor occupancy at 1 µM (AURKC; replicate 1, read-out: AURKC kinase occupancy, Replicate 1 (%)): -7.48%
receptor occupancy at 1 µM (AURKC; replicate 2, read-out: AURKC kinase occupancy, Replicate 2 (%)): 15.7%
receptor occupancy at 1 µM (CLK1; average, read-out: CLK1 kinase occupancy, Average (%)): 4.92%
receptor occupancy at 1 µM (CLK1; replicate 1, read-out: CLK1 kinase occupancy, Replicate 1 (%)): 3.65%
receptor occupancy at 1 µM (CLK1; replicate 2, read-out: CLK1 kinase occupancy, Replicate 2 (%)): 6.2%
receptor occupancy at 1 µM (NTRK1 [4]; average, read-out: NTRK1 kinase occupancy, Average (%)): 73.2%
receptor occupancy at 1 µM (NTRK1 [4]; replicate 1, read-out: NTRK1 kinase occupancy, Replicate 1 (%)): 71.4%
receptor occupancy at 1 µM (NTRK1 [4]; replicate 2, read-out: NTRK1 kinase occupancy, Replicate 2 (%)): 75%
receptor occupancy at 1 µM (WEE1; average, read-out: WEE1 kinase occupancy, Average (%)): 4.94%
receptor occupancy at 1 µM (WEE1; replicate 1, read-out: WEE1 kinase occupancy, Replicate 1 (%)): 9.23%
receptor occupancy at 1 µM (WEE1; replicate 2, read-out: WEE1 kinase occupancy, Replicate 2 (%)): 0.65%
receptor occupancy at 1 µM (AURKB; average, read-out: AURKB kinase occupancy, Average (%)): 7.37%
receptor occupancy at 1 µM (AURKB; replicate 1, read-out: AURKB kinase occupancy, Replicate 1 (%)): 3.71%
receptor occupancy at 1 µM (AURKB; replicate 2, read-out: AURKB kinase occupancy, Replicate 2 (%)): 11%
receptor occupancy at 1 µM (NEK5; average, read-out: NEK5 kinase occupancy, Average (%)): 5.02%
receptor occupancy at 1 µM (NEK5; replicate 1, read-out: NEK5 kinase occupancy, Replicate 1 (%)): -0.81%
receptor occupancy at 1 µM (NEK5; replicate 2, read-out: NEK5 kinase occupancy, Replicate 2 (%)): 10.8%
receptor occupancy at 1 µM (MKNK2; average, read-out: MKNK2 kinase occupancy, Average (%)): 4.61%
receptor occupancy at 1 µM (MKNK2; replicate 1, read-out: MKNK2 kinase occupancy, Replicate 1 (%)): 7.96%
receptor occupancy at 1 µM (MKNK2; replicate 2, read-out: MKNK2 kinase occupancy, Replicate 2 (%)): 1.26%
receptor occupancy at 1 µM (STK36; average, read-out: STK36 kinase occupancy, Average (%)): 4.82%
receptor occupancy at 1 µM (STK36; replicate 1, read-out: STK36 kinase occupancy, Replicate 1 (%)): -3.75%
receptor occupancy at 1 µM (STK36; replicate 2, read-out: STK36 kinase occupancy, Replicate 2 (%)): 13.4%
receptor occupancy at 1 µM (TIE1; average, read-out: TIE1 kinase occupancy, Average (%)): 14%
receptor occupancy at 1 µM (TIE1; replicate 1, read-out: TIE1 kinase occupancy, Replicate 1 (%)): 8.54%
receptor occupancy at 1 µM (TIE1; replicate 2, read-out: TIE1 kinase occupancy, Replicate 2 (%)): 19.5%
receptor occupancy at 1 µM (SGK1; average, read-out: SGK1 kinase occupancy, Average (%)): 4.31%
receptor occupancy at 1 µM (SGK1; replicate 1, read-out: SGK1 kinase occupancy, Replicate 1 (%)): 1.93%
receptor occupancy at 1 µM (SGK1; replicate 2, read-out: SGK1 kinase occupancy, Replicate 2 (%)): 6.69%
receptor occupancy at 1 µM (MUSK; average, read-out: MUSK kinase occupancy, Average (%)): 19.8%
receptor occupancy at 1 µM (MUSK; replicate 1, read-out: MUSK kinase occupancy, Replicate 1 (%)): 17.5%
receptor occupancy at 1 µM (MUSK; replicate 2, read-out: MUSK kinase occupancy, Replicate 2 (%)): 22.2%
IC50 (NTRK1 [5]): 153 nM
AUC(0-inf) ([6]; mouse, blood): 478 ± 87.8 µM·h
AUC(0-t) ([6]; mouse, blood): 418 ± 62.1 µM·h
Cmax ([6]; mouse, blood): 37.1 ± 4.88 µM
Tmax ([6]; mouse, blood): 1.17 ± 0.76 h
half-life ([6]; mouse, blood): 8.03 ± 1.25 h
MRT last ([6]; mouse, blood, read-out: MRT0-t): 7.23 ± 0.38 h
MRT inf ([6]; mouse, blood, read-out: MRT0-∞): 10.7 ± 1.52 h
CL/F [6]: 0.11 ± 0.02 mg/(hr*μmol/L)/kg
Vd/F [6]: 1.22 ± 0.05 mg/(μmol/L)/kg
half-life [7]: 13.1 h
microsomal CLint [7]: 1.8 µL/min/mg
